Data from US20100168150A1, “Camptothecin Analogue Compounds, a Process for Their Preparation and Pharmaceutical Compositions Containing Them” (Les Laboratoires Servier, priority 2005, published 2010).
Counter-ions that a name gives are not always drawn.

What was measured:
HCT116 = assay: In vivo activity with respect to HCT116; settings: compared with non-esterified homologue (compound of Preparation 2)
[1] = In vivo toxicity, maximum tolerated dose; settings: nude (bab/c), mouse, in vivo; nude mice, intravenous administration once per week for 3 weeks; largest dose causing neither death nor weight loss of more than 20%
Method: (§1) The compounds are formulated in a Tween/water mixture and administered by the intravenous (i.v.) route (administration over three weeks at the rate of once per week, the injection volume being 0.2 ml/mouse with increasing doses of compounds of 6.25, 12.5, 25 and 50 mg/kg) to nude mice (bab/c supplied by Iffa Credo) weighing about 20 g. The maximum tolerated dose (MTD) is the largest dose causing neither death nor a weight loss of more than 20%.

nude mice = assay: In vivo toxicity, maximum tolerated dose; settings: i.v. once per week for 3 weeks, compared with compound of Preparation 2
Method: as §1

[2] = test system: human colon carcinoma HCT116; assay: In vitro cytotoxicity, Microculture Tetrazolium Assay, HCT116; format: cell-based; settings: HCT116 cells, 96 hours exposure, inhibition of proliferation
Method: (§2) The murine leukaemia L1210 and the human colon carcinomas HCT116 and HT29 were used in vitro. The cells are cultured in RPMI 1640 complete culture medium containing 10% foetal calf serum, 2 mM glutamine, 50 units/ml of penicillin, 50 μg/ml of streptomycin and 10 mM Hepes, pH=7.4. The cells are distributed on microplates and are exposed to the cytotoxic compounds for 4 doubling times, that is to say 48 hours (L1210) or 96 hours (HCT116 and HT29). The number of viable cells is then quantified by a colorimetric assay, the Microculture Tetrazolium Assay (J. Carmichael et al., Cancer Res.; 47, 936-942, (1987)). The results are expressed in terms of the IC50 (the concentration of cytotoxic agent which inhibits proliferation of the treated cells by 50%).

[3] = test system: human colon carcinoma HT29; assay: In vitro cytotoxicity, Microculture Tetrazolium Assay, HT29; format: cell-based; settings: HT29 cells, 96 hours exposure, inhibition of proliferation
Method: as §2

murine leukaemia L1210 = assay: In vitro cytotoxicity, Microculture Tetrazolium Assay, L1210; format: cell-based; settings: L1210 cells, 48 hours exposure, inhibition of proliferation
Method: as §2

Row | SMILES | IC50 ([2]; Homo sapiens, HCT-116) [nM] | IC50 ([3]; Homo sapiens, HT-29) [nM] | IC50 (murine leukaemia L1210; Mus musculus) [nM] | other results
1 | CCC1(OC(=O)CCN2CCCCC2)C(=O)Cc2c1cc1n(c2=O)Cc2c-1nc1cc3c(cc1c2C1CCC1)OCO3.Cl (stereo not drawn) [Example 2, 7-Ethyl-2,3-methylenedioxy-13-cyclobutyl-8,10-dioxo-8,9,10,12-tetrahydro-7H-cyclopenta[6,7]indolizino[1,2-b]quinolin-7-yl 3-piperidinopropanoate hydrochloride] | 1.5 | 3.7 |  | in vivo activity with respect to HCT116 compared with compound of Preparation 2 (HCT116): same in vivo activity; MTD at 3 weeks [1]: 25 mg/kg; toxicity relative to the non-esterified homologue (compound of Preparation 2) (nude mice): two times less toxic
2 | CCC1(OC(=O)CCN2CCc3cc(OC)c(OC)cc3C2)C(=O)Cc2c1cc1n(c2=O)Cc2c-1nc1cc3c(cc1c2C1CCC1)OCO3 (stereo not drawn) [Example 24, 7-Ethyl-2,3-methylenedioxy-13-cyclobutyl-8,10-dioxo-8,9,10,12-tetrahydro-7H-cyclopenta[6,7]indolizino[1,2-b]quinolin-7-yl 3-[(6,7-dimethoxy-3,4-dihydroisoquinolin-2(1H)-yl]propanoate hydrochloride] |  |  |  | IC50 (murine leukaemia L1210): 7.9 nM; IC50 [2]: 0.7 nM; IC50 [3]: 2.6 nM
3 | CCC1(OC(=O)CCN2CCCCC2)C(=O)Cc2c1cc1n(c2=O)Cc2c-1nc1cc3c(cc1c2C)OCO3 (stereo not drawn) [Example 1, 7-Ethyl-2,3-methylenedioxy-13-methyl-8,10-dioxo-8,9,10,12-tetrahydro-7H-cyclopenta[6,7]indolizino[1,2-b]quinolin-7-yl 3-piperidinopropanoate hydrochloride] |  |  | 4.2 | 
4 | CCC1(OC(=O)CCN2CC[C@H]3CCCC[C@@H]3C2)C(=O)Cc2c1cc1n(c2=O)Cc2c-1nc1cc3c(cc1c2C1CCC1)OCO3 (stereo partly drawn) [Example 23, 7-Ethyl-2,3-methylenedioxy-13-cyclobutyl-8,10-dioxo-8,9,10,12-tetrahydro-7H-cyclopenta[6,7]indolizino[1,2-b]quinolin-7-yl 3-[(4aR,8aS)-octahydroisoquinolin-2(1H)-yl]propanoate hydrochloride] | 1.1 | 2.4 | 7.3 | 
